We go through seven molecules from US7671069B2, “Tricyclic, heteroaromatic compounds modulating CXCR4 and/ or CXCR7” (ChemoCentryx, Inc., priority 2006, dated 2010).

Bounds are passed on as bounds.

Assay [1] concerns the target T1, CCXCKR2 (CXCR7) (Homo sapiens, UniProt P25106).
T1 construct: expressed in transfected cells; host or cells: MDA-MB-435S transfected with pcDNA3.1(+)-hRDC1 (G418 selected) and/or MCF-7 (endogenous receptor)
Put plainly: Displacement of 125I SDF-1 from CCXCKR2 (CXCR7) on MCF-7 and/or MDA-MB-435S cells. It counts as binding. The note with it: second activity CXCR4/CXCR7. How it is done:
The ability of the compounds to displace the labeled chemokine from the CCXCKR2 receptor sites at multiple concentrations was then determined with the screening process.
Reagents and Cells. […] SDF-1 was purchased from Perkin-Elmer Life Sciences, Inc. (Boston, Mass.). The MCF-7 (adenocarcinoma; mammary gland) cell line was obtained from the American Type Culture Collection (Manassas, Va.) or and was cultured in DMEM (Mediatech, Herudon, Va.) supplemented with 10% fetal bovine serum (FBS) (HyClone Logan, Utah) and bovine insulin (0.01 mg/mL) (Sigma, St. Louis, Mo.) at 37° C. in a humidified incubator at a 5% CO2/air mixture. CCXCKR2 transfected MDA-MB-435S were produced as described below. MDA-MB-435S human breast cancer line, was purchased from ATCC, and cultured in DMEM/10% FBS medium. The complete coding sequence of the gene encoding CCXCKR2 (a.k.a.CXCR7, hRDC1), was isolated from MCF-7 cells using μMACs mRNA isolation kit (Miltenyi Biotec, Auburn, Calif.). DNA contamination was removed by DNase digestion via RNeasy columns (Qiagen, Inc., Valencia, Calif.) and cDNA was generated using GeneAmp RNA PCR Core Kit (Applied Biosystems, Foster City, Clif.). PCR of cDNA samples was performed using Taq PCR Master Mix kit (Qiagen, Inc.) and hRDC1 primers harboring 5′ and 3′ Not I sites (hRDC1F 5′ […]-3′ (SEO ID NO:11), hRDC1R 5′-[…]-3′ (SEO ID NO: 12)) Not I digested PCR product was ligated into Not I digested pcDNA3.1 (+)(Invitrogen, Carlsbad, Calif.) and screened for orientation and sequence confirmed. Plasmid DNA was then isolated from overnight bacterial cultures by Maxiprep (Qiagen, Inc.). Plasmid DNA (10μg) was added to MDA-MB-435s cells and cells were electroporated (0.22 kV, 960uF) via Gene Pulser (Biorad laboratories, Hercules, Calif.). 48 hr post-electroporation, cells were transferred to selection medium (1000 ug/ml G418).
Binding Analysis. Target compounds were tested to determine their ability to bind with CCXCKR2 sites on MCF-7 and/or MDA-MB-435S cells. Efficiency-maximized radioligand binding using filtration protocols as described in Dairaghi D J, et al., HHV8-encoded vMIP-I selectively engages chemokine receptor CCR5. Agonist and antagonist profiles of viral chemokines, J. Biol. Chem. Jul. 30, 1999; 274(31): 21569-74 and Gosling J, et al., Cutting edge: identification of a novel chemokine receptor that binds dendritic cell-i and T cell-active chemokines including ELC, SLC, and TECK., J. Immunol. Mar. 15, 2000; 164(6):2851-6 was used.
In these assays, MCF-7 and/or MDA-MB-435S cells were interrogated with the target compounds and the ability of these compounds to displace ^125I radiolabeled SDF-1 was assessed using the protocol described in Dairaghi and Gosling. The target compounds were added to the plate to the indicated concentration and were then incubated with cells followed by the addition of radiolabeled chemokine (^125I SDF-1) for 3 hr at 4° C. in the following binding medium (25 mM HEPES, 140 mM NaCl, 1 mM CaCl2, 5 mM MgCl2 and 0.2% bovine serum albumin, adjusted to pH 7.1). All assays were then incubated for 3 hrs at 4° C. with gentle agitation. Following incubation in all binding assays, reactions were aspirated onto PEI-treated GF/B glass filters (Packard) using a cell harvester (Packard) and washed twice (25 mM HEPES, 500 mM NaCl, 1 mM CaCl2, 5 mM MgCl2, adjusted to pH 7.1). Scintillant (MicroScint 10, Packard) was added to the wells, and the filters were counted in a Packard Topcount scintillation counter. Data were analyzed and plotted using Prism (GraphPad Prism version 3.0a for Macintosh, GraphPad Software, www.graphpad.com).

In assay [2] the target is T2, CXCR4 (Homo sapiens, UniProt P61073).
T2 construct: endogenous in cells; host or cells: CEM-Nkr, CCRF-CEM (ATCC #CCL-119), Jurkat (ATCC #TIB-152), Molt-4 (ATCC# CRL-1582); IL-2 stimulated lymphocytes from human blood
T2 sequence (P61073 whole entry): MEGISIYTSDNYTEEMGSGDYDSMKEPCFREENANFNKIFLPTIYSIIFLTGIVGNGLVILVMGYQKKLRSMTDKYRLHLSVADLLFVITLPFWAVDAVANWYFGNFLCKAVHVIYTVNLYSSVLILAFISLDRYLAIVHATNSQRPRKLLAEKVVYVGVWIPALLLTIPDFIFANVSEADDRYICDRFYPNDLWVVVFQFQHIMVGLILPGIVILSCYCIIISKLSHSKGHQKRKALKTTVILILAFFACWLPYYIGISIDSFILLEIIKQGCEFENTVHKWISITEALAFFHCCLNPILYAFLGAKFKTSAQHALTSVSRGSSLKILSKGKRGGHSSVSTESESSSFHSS
The assay is described as follows: Inhibition of SDF-1 ligand binding or chemotaxis assay for CXCR4. The conditions noted are these: first (or only) activity listed in CXCR4/CXCR7; chemotaxis assay or binding assays. How it is done:
CEM-Nkr, CCRF-CEM (ATCC #CCL-119), Jurkat (ATCC #TIB-152), Molt-4 (ATCC# CRL-1 582), cell lines, all endogenously expressing CXCR4, were used in compound screening and subsequent assays. These cell lines were cultured as a suspension in RPMI-1640 medium supplemented with 2 mM L-glutamine, 1.5 g/L sodium bicarbonate, 4.5 g/L glucose, 10 mM HEPES, 1 mM sodium pyruvate, and 10% FBS. Cells were grown under 5% CO2/95% air, 100% humidity at 37° C. and subcultured twice weekly at 1:6 (cells were cultured at a density range of 1×10^5 to 2×10^6 cells/mL) and harvested at 1×10^6 cells/mL.
Il-2 stimulated lymphocytes were isolated from fresh human blood using density separation and centrifigation. Briefly, whole blood is incubated with equal parts 3% dextran and allowed to separate for 45 minutes. After separation, the top layer is then layered on top of 15 mls of Ficoll (15 mls of Ficoll for every 30 mls of blood suspension) and centrifuged for 30 minutes at 400×g with no brake. The pellet at the bottom of the tube is then isolated and resuspended into PharmLyse RBC Lysis Buffer (BD Biosciences, San Jose, Calif.) after which the sample is again centrifuged for 10 minutes at 400×g with brake. The remaining cell pellet is resuspended as appropriate and stimulated with PHA for 2 days, followed by culturing in the presence of human IL-2 cytokine.
Cells were centrifuged and resuspended in assay buffer (20 mM HEPES pH 7.1, 140 mM NaCl, 1 mM CaCl2, 5 mM MgCl2, and with 0.2% bovine serum albumin) to a concentration of 4×10^6 cells/mL for cell lines. Binding assays were set up as follows. 0.15 mL of cells (6×10^5 cells/well) was added to the assay plates containing the compounds, giving a final concentration of ˜2-10 μM each compound for screening (or part of a dose response for compound IC50 determinations). Then 0.1 mL of ^125I labeled SDF-1α (obtained from Perkin Elmer Life Sciences, Boston, Mass.) diluted in assay buffer to a final concentration of ˜[…], yielding ˜30,000 cpm per well, was added, the plates sealed and incubated for approximately 3 hours at 4° C. on a shaker platform. Reactions were aspirated onto GF/B glass filters pre-soaked in 0.3% polyethyleneimine (PEI) solution, on a vacuum cell harvester (Packard Instruments; Meriden, Conn.). Scintillation fluid (40 μl; Microscint 20, Packard Instruments) was added to each well, the plates were sealed and radioactivity measured in a Topcount scintillation counter (Packard Instruments). Control wells containing either diluent only (for total counts) or excess SDF1a (1 μg/mL, for non-specific binding) were used to calculate the percent of total inhibition for compound. The computer program Prism from Graph Pad, Inc. (San Diego, Calif.) was used to calculate IC50 values. IC50 values are those concentrations required to reduce the binding of radiolabeled SDF-1α to the receptor by 50%. (For further descriptions of ligand binding and other functional assays, see Dairaghi, et al., J. Biol. Chem. 274:21569-21574 (1999), Penfold, et al., Proc. Natl. Acad. Sci. USA. 96:9839-9844 (1999), and Dairaghi, et al,. J. Biol. Chem. 272:28206-28209 (1997)).
Chemotaxis assays were performed using 5 μm pore polycarbonate, polyvinylpyrrolidone-coated filters in 96-well chemotaxis chambers (Neuroprobe; Gaithersburg, Md.) using chemotaxis buffer (Hank's balanced salt solution (HBSS) and 1% FBS). CXCR4 ligand (i.e., SDF1a, R&D Systems; Minneapolis, Minn.) are use to evaluate compound mediated inhibition of CXCR4 mediated migration. Other chemokines (i.e., TECK; R&D Systems; Minneapolis, Minn.) are used as specificity controls. The lower chamber was loaded with 29 μl of chemokine (i.e., 0.1 nM SDF1a); the top chamber contained 50,000 Jurkat cells or IL-2 lymphocytes in 20 μl. […]

T1 sequence (P25106 whole entry): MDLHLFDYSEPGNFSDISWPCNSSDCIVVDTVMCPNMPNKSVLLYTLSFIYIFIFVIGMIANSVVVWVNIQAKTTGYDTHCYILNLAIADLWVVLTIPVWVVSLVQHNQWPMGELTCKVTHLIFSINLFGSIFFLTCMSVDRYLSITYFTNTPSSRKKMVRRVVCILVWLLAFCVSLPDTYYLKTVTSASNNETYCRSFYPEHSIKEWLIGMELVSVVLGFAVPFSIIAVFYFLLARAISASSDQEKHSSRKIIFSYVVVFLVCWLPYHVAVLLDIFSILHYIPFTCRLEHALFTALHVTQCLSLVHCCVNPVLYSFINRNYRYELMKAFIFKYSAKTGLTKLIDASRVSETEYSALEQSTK

Usually IC50 stands for the concentration that inhibits the measured activity by half. Low values mean inhibition by little substance, high ones a need for much substance. For `Cc1ccc2oc(=O)c3cnn(CC(=O)NCCN(C)C4CCCCC4)c3c2c1` [Compound 1], the values for the 50% inhibitory concentration (IC50) in assay [1] and in assay [2] were below 1000 nM and 1000 to 10000 nM, respectively.

Take `Cc1ccc2c(c1)-c1c(cnn1CC(=O)NCCN(C)C1CCCCC1)CO2` [Compound 2]: the IC50 in assay [1] is below 1000 nM; in assay [2] it was 1000 to 10000 nM.

With `COc1ccc2c(c1)c1c(cnn1CC(=O)NCCN1CCCC3CCCCC31)c(=O)n2C` (centres unmarked) [Compound 13], the 50% inhibitory concentration (IC50) in assay [1] and in assay [2] was below 1000 nM throughout.

`COc1ccc2oc(=O)c3cnn(CC(=O)NCCN(C)C4CCCCC4)c3c2c1` [Compound 24]: the concentration for half-maximal inhibition (IC50) in assay [1] and in assay [2] was below 1000 nM in each case.

As for `COc1ccc2c(c1)c1c(cnn1CC(=O)NCCN(C)C1CCCCC1)c(=O)n2C` [Compound 30], the concentration for half-maximal inhibition (IC50) in assay [1] was below 1000 nM; in assay [2], 1000 to 10000 nM.

With `COc1ccc2c(c1)c1c(cnn1CC(=O)NCCNC1CCCCC1)c(=O)n2C` [Compound 31], the IC50 in assay [1] was below 1000 nM; in assay [2], above 10000 nM.

For the molecule `COc1ccc2c(c1)c1c(cnn1CC(=O)NCCN(C)C1CCCCCCC1)c(=O)n2C` [Compound 32], the IC50 in assay [1] is below 1000 nM; in assay [2], 1000 to 10000 nM.
